# According to US5545640A, “Protease inhibiting succinic acid derivatives” (Bio-Mega/Boehringer Ingeleheim Research Inc., priority 1995, dated 1996):
# Where two headings read alike, the source gives them in different places.
# Legend:
# HIV protease = molecular target: T1, HIV protease (Human immunodeficiency virus type 1 group M subtype B, UniProt P04585); experiment: biochemical; conditions: read-out: IC50 (concentration causing 50% inhibition of HIV protease)
# T1 construct: an HIV-encoded enzyme known as HIV protease
# From the text: The procedure is based on the capacity of the test compound to inhibit enzymatic cleavage by HIV protease of a decapeptide (the substrate) having an amino acid sequence which includes a known HIV protease cleavage site of a HIV polyprotein; see H. G. Krausslich et al., Proc. Natl. Acad. Sci. USA, 86, 807 (1989).
# Anderson, S. Rakhit and C. Yoakim in the European patent application 443 560, published Aug. 28, 1991.
# [1] = test system: HIV (H9/HTLV-IIIB stock) in C8166 cells; experiment: Cell culture assay: inhibition of syncytia formation in HIV-infected C8166 cells (antiviral, anti-HIV effect); assay type: cell-based, HIV (HTLV-IIIB); human T4 cell line; conditions: Human immunodeficiency virus 1; C8166 cells; H9/HTLV-IIIB, 50 times TCID50; 72 h, 37°; read-out: EC50 (concentration causing 50% inhibition of syncytia formation)
# From the text: Typical of such procedures are those described by S. Harada and N. Yamamoto, Jpn. J. Cancer Res. (Gann), 76, 432 (1985), and S. Harada et al., Science, 229, 563 (1985). An assay based on the latter procedures is described in the examples hereinafter.
# In addition, Tables 1 to 8 list the results for exemplified compounds of formula 1 when assayed for antiviral (anti-HIV) effects according to the following protocol which is based on a cell culture assay previously described by Harada et al., supra. Transformed cells are used because of the rapidity with which HIV will replicate in the cells.
# 1. The test compound is dissolved in dimethylsulfoxide to a concentration of 5 mg/mL. The resultant solution .can be stored at 4° until use.
# 2. The resultant solution is diluted in RPMI 1640 (Gibco Laboratories, St. Lawrence, Mass., USA) to four times (4×) the final concentration which is to be tested. Once diluted in RPMI 1640, the solution is used in the cell culture assay within 4 h.
# 3. The latter solution (50 μL) is added to triplicate wells of a 96 well flat bottomed microtiter plate. RPMI (50 μL) also is added to control wells.
# 4. C8166 cells (5×10^4) in 50 μL of HEPES-buffered RPMI 1640 (pH=7.2), 10% heat inactivated fetal calf serum (FCS), […] gentamicin (complete media) are added to all wells.
# 5. Fifty times TCID50 of H9/HTLV-IIIB stock (stored in liquid nitrogen as cell culture supernatant in 50% FCS) in 100 μL of complete media is added to all wells. The infectious titer of the virus stocks is as previously determined by end point dilution on C8166 cells. The titer of stocks are stable for 6-12 months when stored at -193°.
# 6. Microtiter plates are then placed on level shelves of a 37°, 5% CO2 humidified incubator for 72 h.
# 7. Plates are then removed and centers of syncytia are counted in each well by low power phase contrast light microscopy. […] Control wells should have between 25 and 75 centers of syncytia per well.
# 8. Percent inhibition of syncytia formation is calculated by the formula: [formula]
# The concentration of the test compound which causes a 50% inhibition of syncytia formation, i.e. the EC50, is determined by using the technique of serial dilution of the working solution at step 3 and graphically plotting the observed percent inhibition of syncytia formation against the various concentrations of the test compound.
# In the following tables, assay results are listed for the exemplified compounds from the aforementioned recombinant HIV protease HPLC assay under the heading IC50 (nM) and from the cell culture assay under the heading EC50 (nM). Note that for some of the compounds listed in tables, the EC50 's have not been determined (ND).
# [2] = recombinant HIV protease, decapeptide substrate, HPLC assay
SMILES,IC50 (HIV protease; [2]) [nM],EC50 [1] [nM],IC50 (HIV protease) [nM]
CCC(CC)NC(=O)C[C@@H](C(=O)NC[C@@H](O)[C@H](Cc1ccccc1)NC(=O)[C@H](C(C)C)N(C)C(=O)OCc1ccccc1)C(C)(C)C [Entry 13],12,1900,–
CCC(CC)NC(=O)C[C@@H](C(=O)NC[C@@H](O)[C@H](Cc1ccccc1)NC(=O)[C@H](CC(N)=O)NC(=O)c1ccnc2ccccc12)C(C)(C)C [Entry 15],9,450,–
CCC(CC)NC(=O)C[C@@H](C(=O)NC[C@@H](O)[C@H](Cc1ccccc1)NC(=O)[C@H](CC(N)=O)NC(=O)c1cnc2ccccc2n1)C(C)(C)C [Entry 36],3,260,–
CCC(CC)NC(=O)C[C@@H](C(=O)NC[C@@H](O)[C@H](Cc1ccccc1)NC(=O)[C@H](CC(N)=O)NC(=O)C=Cc1ccccc1)C(C)(C)C [Entry 17],7,1400,–
CCC(CC)NC(=O)C[C@@H](C(=O)NC[C@@H](O)[C@H](Cc1ccccc1)NC(=O)[C@H](CC(N)=O)NC(=O)c1cc2ccccc2cn1)C(C)(C)C [Entry 18],5,220,–
CCC(CC)NC(=O)C[C@@H](C(=O)NC[C@@H](O)[C@H](Cc1ccccc1)NC(=O)[C@@H](NC(=O)OCc1ccccc1)C(C)(C)C)C(C)(C)C [Entry 34],3,65,–
CCC(CC)NC(=O)C[C@@H](C(=O)NC[C@@H](O)[C@H](Cc1ccccc1)NC(=O)[C@@H](NC(=O)COc1ccccc1)[C@@H](C)O)C(C)(C)C [Entry 41],3,170,–
CCC(CC)NC(=O)C[C@@H](C(=O)NC[C@@H](O)[C@H](Cc1ccccc1)NC(=O)[C@@H](NC(=O)c1ccc2ccccc2n1)C(C)C)C(C)(C)C [Entry 29],–,52,3
CCC(CC)NC(=O)C[C@@H](C(=O)NC[C@@H](O)[C@H](Cc1ccccc1)NC(=O)[C@@H](NC(=O)c1cnc2ccccc2n1)[C@@H](C)O)C(C)(C)C [Entry 26],–,65,4
CCC(CC)NC(=O)C[C@@H](C(=O)NC[C@@H](O)[C@H](Cc1ccccc1)NC(=O)[C@H](CC(N)=O)NC(=O)c1cc(OC)c2ccccc2n1)C(C)(C)C [Entry 25],4,164,–
CCC(CC)NC(=O)C[C@@H](C(=O)NC[C@@H](O)[C@H](Cc1ccccc1)NC(=O)[C@@H](NC(=O)OCc1ccccc1)C(C)C)C(C)(C)C [Entry 32],3,63,–
CCC(CC)NC(=O)C[C@@H](C(=O)NC[C@@H](O)[C@H](Cc1ccccc1)NC(=O)[C@H](CC(N)=O)NC(=O)c1cc2ccccc2n1C)C(C)(C)C [Entry 11],14,660,–
CCC(CC)NC(=O)C[C@@H](C(=O)NC[C@@H](O)[C@H](Cc1ccccc1)NC(=O)[C@H](CO)NC(=O)c1ccc2ccccc2n1)C(C)(C)C [Entry 6],27,420,–
CCC(CC)NC(=O)C[C@@H](C(=O)NC[C@@H](O)[C@H](Cc1ccccc1)NC(=O)[C@H](CC(N)=O)NC(=O)CCc1ccccc1)C(C)(C)C [Entry 9],15,1900,–
CCC(CC)NC(=O)C[C@@H](C(=O)NC[C@@H](O)[C@H](Cc1ccccc1)NC(=O)[C@@H](NC(=O)c1cnc2ccccc2n1)C(C)C)C(C)(C)C [Entry 31],–,25,3
CCC(CC)NC(=O)C[C@@H](C(=O)NC[C@@H](O)[C@H](Cc1ccccc1)NC(=O)[C@@H](NC(C)=O)C(C)C)C(C)(C)C [Entry 28],4,530,–
CCC(CC)NC(=O)C[C@@H](C(=O)NC[C@@H](O)[C@H](Cc1ccccc1)NC(=O)[C@@H](NC(=O)c1ccc2ccccc2n1)C(C)(C)C)C(C)(C)C [Entry 27],4,83,–

# More lines, now with the values ahead:
IC50 (HIV protease; [2]) [nM],EC50 [1] [nM],IC50 (HIV protease) [nM],SMILES
3.5,645,–,"CCC(CC)NC(=O)C[C@@H](C(=O)NC[C@@H](O)[C@H](Cc1ccccc1)NC(=O)COc1c(C)cccc1C)C(C)(C)C [Entry 71, N^1-(1-Ethylpropyl)-N^4 -{3(S)-{{(2,6-dimethylphenoxy)acetyl}amino}-2(R)-hydroxy-4-phenylbutyl}-3(R)-tert-butylbutanediamide]"
6,130,–,CCC(CC)NC(=O)CC(C(=O)NC[C@@H](O)[C@H](Cc1ccccc1)NC(=O)[C@H](CC(N)=O)NC(=O)c1ccc2ccccc2n1)C(C)(C)C (stereo partly shown) [Entry 52]
4,150,–,CC(C)C(NC(=O)C[C@@H](C(=O)NC[C@@H](O)[C@H](Cc1ccccc1)NC(=O)[C@H](CC(N)=O)NC(=O)c1ccc2ccccc2n1)C(C)(C)C)C(C)C [Entry 45]
5,30,–,CCc1cccc(CC)c1NC(=O)C[C@@H](C(=O)NC[C@@H](O)[C@H](Cc1ccccc1)NC(=O)[C@@H](NC(=O)c1ccc2ccccc2n1)[C@@H](C)O)C(C)(C)C [Entry 43]
2,30,–,Cc1cccc(C)c1NC(=O)C[C@@H](C(=O)NC[C@@H](O)[C@H](Cc1ccccc1)NC(=O)[C@@H](NC(=O)c1ccc2ccccc2n1)[C@@H](C)O)C(C)(C)C [Entry 46]
4.6,1200,–,CCC(CC)NC(=O)C[C@@H](C(=O)NC[C@@H](O)[C@H](Cc1ccccc1)NC(=O)COc1c(C)cc(C)cc1C)C(C)(C)C [Entry 70]
7,570,–,"CCC(CC)OC(=O)C[C@@H](C(=O)NC[C@@H](O)[C@H](Cc1ccccc1)NC(=O)[C@H](CC(N)=O)NC(=O)c1ccc2ccccc2n1)C(C)(C)C [Entry 59, 3(R)-tert-butyl-4-{2(R)-hydroxy-4-phenyl-3(S)-{[N-(2-quinolylcarbonyl)asparaginyl]-amino}butylamino}-4-oxobutyric acid 1-ethylpropyl ester]"
2.6,620,–,Cc1cccc(C)c1NC(=O)C[C@@H](C(=O)NC[C@@H](O)[C@H](Cc1ccccc1)NC(=O)COc1c(C)cccc1C)C(C)(C)C [Entry 73]
2,370,–,Cc1ccc(C)c(C(=O)N[C@@H](Cc2ccccc2)[C@H](O)CNC(=O)[C@H](CC(=O)Nc2c(C)cccc2C)C(C)(C)C)c1 [Entry 74]
8.7,845,–,CCC(CC)NC(=O)C[C@@H](C(=O)NC[C@@H](O)[C@H](Cc1ccccc1)NC(=O)c1ccc(Cl)cc1)C(C)(C)C [Entry 65]
6,90,–,CCC(CC)NC(=O)CC(C(=O)NC[C@@H](O)[C@H](Cc1ccccc1)NC(=O)[C@@H](NC(=O)OCc1ccccc1)C(C)(C)C)C(C)(C)C (stereo partly shown) [Entry 53]
3.1,110,–,"CCC(CC)NC(=O)C[C@@H](C(=O)NC[C@@H](O)[C@H](Cc1ccc(O)cc1)NC(=O)COc1c(C)cccc1C)C(C)(C)C [Entry 63, N^1-(1-ethylpropyl)-N^4 -{3(S)-{{(2,6-dimethylphenoxy)-acetyl}amino}-2(R)-hydroxy-4-(4-hydroxyphenyl)butyl}-3(R)-tert-butylbutanediamide]"
6,360,–,CCC(CC)NC(=O)C[C@@H](C(=O)NC[C@@H](O)[C@H](Cc1ccccc1)NC(=O)c1c(Cl)ccc(Cl)c1Cl)C(C)(C)C [Entry 67]
8.9,640,–,CCC(CC)NC(=O)C[C@@H](C(=O)NC[C@@H](O)[C@H](Cc1ccccc1)NC(=O)c1cc2ccccc2n1C)C(C)(C)C [Entry 64]
4,57,–,CCCC(CCC)NC(=O)C[C@@H](C(=O)NC[C@@H](O)[C@H](Cc1ccccc1)NC(=O)[C@H](CC(N)=O)NC(=O)c1ccc2ccccc2n1)C(C)(C)C [Entry 44]
